In PubChem BioAssay (NCI):
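Five concentrations, 48 hours, 96-well plates. The concentration for 50% growth inhibition is given as GI50. TGI marks complete inhibition of growth.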

How the values were obtained:
Assay in all cases: NCI-60 cell line screen, 48 h
[1] = system: A498 renal
[2] = system: OVCAR-5 ovarian
[3] = system: K-562 leukemia
[4] = system: SNB-75 CNS
[5] = system: ACHN renal
[6] = system: A549 NSCLC
[7] = system: RPMI-8226 leukemia
[8] = system: UO-31 renal
[9] = system: NCI-H226 lung
[10] = system: CAKI-1 renal

COc1cc2nc(-c3ccc(C(F)(F)F)cc3)cc(OCCCN3CCCC3)c2cc1OC
GI50 [1]: 1.07 µM
TGI [1]: 4.31 µM
GI50 [2]: 0.803 µM
TGI [2]: 18.9 µM
GI50 [3]: 0.445 µM
TGI [3]: 4.54 µM
GI50 [4]: 0.207 µM
TGI [4]: 4.49 µM
GI50 [5]: 0.754 µM
TGI [5]: > 34.1 µM
GI50 [6]: 0.685 µM
TGI [6]: > 42.7 µM
GI50 [7]: 0.0786 µM
TGI [7]: 1.6 µM
GI50 [8]: 1.59 µM
TGI [8]: 14.2 µM
GI50 [9]: 0.737 µM
TGI [9]: 10.6 µM
GI50 [10]: 0.245 µM
TGI [10]: 14 µM

Cc1ccccc1/C=C/C(=O)c1ccccc1
TGI [1]: 30.2 µM
TGI [2]: 30.9 µM
TGI [3]: 49.7 µM
TGI [4]: 34.6 µM
TGI [5]: 32.8 µM
TGI [6]: 65.1 µM
TGI [7]: 71.4 µM
TGI [8]: 36.2 µM
TGI [9]: 36.7 µM
TGI [10]: 37.2 µM

CC(C)Oc1ccc(C(=O)Cn2ccnc2)cc1-n1c(CN2CCN(C(=O)COc3ccc(Cl)cc3)CC2)nc2ccccc2c1=O
GI50 [1]: 14.1 µM
TGI [1]: 28.6 µM
GI50 [2]: 17.6 µM
TGI [2]: 42.4 µM
GI50 [3]: 5.77 µM
TGI [3]: 81.3 µM
GI50 [4]: 5.49 µM
TGI [4]: 32.2 µM
GI50 [5]: 1.61 µM
TGI [5]: 3.14 µM
GI50 [6]: 18.4 µM
TGI [6]: > 72.1 µM
GI50 [7]: 11.5 µM
TGI [7]: 40.4 µM
GI50 [8]: 1.56 µM
TGI [8]: 2.98 µM
GI50 [9]: 14.5 µM
TGI [9]: 38.9 µM
GI50 [10]: 4.04 µM
TGI [10]: 9.25 µM

CCCCCCCCCCCC1CC(=O)NCCCN(C)CCCCN(C)CCCN1C (stereo not given)
TGI [1]: 3.14 µM
TGI [2]: 3.3 µM
TGI [3]: 0.699 µM
TGI [4]: 2.99 µM
TGI [5]: 3.08 µM
TGI [6]: 3.16 µM
TGI [7]: 4.09 µM
TGI [8]: 3.11 µM
TGI [9]: 3.43 µM
TGI [10]: 3.54 µM

O=c1c2ccccc2sc2ccccc12
TGI [1]: > 100 µM
TGI [2]: > 100 µM
TGI [3]: > 100 µM
TGI [4]: > 100 µM
TGI [5]: > 100 µM
TGI [6]: > 100 µM
TGI [7]: > 100 µM
TGI [8]: > 100 µM
TGI [9]: > 100 µM
TGI [10]: > 100 µM

CCn1c(-c2nonc2N)nc2ccncc21
GI50 [1]: > 25 µM
TGI [1]: > 25 µM
GI50 [2]: > 25 µM
TGI [2]: > 25 µM
GI50 [3]: > 25 µM
TGI [3]: > 25 µM
GI50 [4]: > 25 µM
TGI [4]: > 25 µM
GI50 [5]: > 25 µM
TGI [5]: > 25 µM
GI50 [6]: > 25 µM
TGI [6]: > 25 µM
GI50 [7]: > 25 µM
TGI [7]: > 25 µM
GI50 [8]: > 25 µM
TGI [8]: > 25 µM
GI50 [9]: > 25 µM
TGI [9]: > 25 µM
GI50 [10]: > 25 µM
TGI [10]: > 25 µM

CC1OC(c2ccc3c(c2O)C(=O)C2=C(C3=O)C3(O)C(=O)CC(C)(O)CC3(O)C=C2)CC(O)C1O (stereo not given)
TGI [1]: 34.5 µM
TGI [2]: 31.8 µM
TGI [3]: 14.3 µM
TGI [4]: 48.7 µM
TGI [5]: 26.5 µM
TGI [6]: > 73.5 µM
TGI [7]: 48.1 µM
TGI [8]: 36.9 µM
TGI [9]: 49.8 µM
TGI [10]: 19.7 µM

COc1cccc(COc2cc(-n3cnc4ccccc43)sc2C(N)=O)c1
GI50 [1]: 0.92 µM
TGI [1]: > 25 µM
GI50 [2]: 14.2 µM
TGI [2]: > 25 µM
GI50 [3]: > 25 µM
TGI [3]: > 25 µM
GI50 [4]: > 12.2 µM
TGI [4]: > 25 µM
GI50 [5]: > 25 µM
TGI [5]: > 25 µM
GI50 [6]: > 21.7 µM
TGI [6]: > 25 µM
GI50 [7]: > 25 µM
TGI [7]: > 25 µM
GI50 [8]: > 25 µM
TGI [8]: > 25 µM
GI50 [9]: > 20.5 µM
TGI [9]: > 25 µM
GI50 [10]: > 25 µM
TGI [10]: > 25 µM

Cc1cccc(C)c1N1C(=O)C(=O)C(c2nc3ccccc3s2)C(=Nc2cccc3c(=O)[nH][nH]c(=O)c23)C1=O (stereo not given)
TGI [1]: > 100 µM
TGI [2]: > 100 µM
TGI [3]: > 100 µM
TGI [4]: > 100 µM
TGI [5]: > 100 µM
TGI [6]: > 100 µM
TGI [7]: > 100 µM
TGI [8]: > 100 µM
TGI [9]: > 100 µM
TGI [10]: > 100 µM

Cc1cccc(N(CC(=O)O)S(=O)(=O)c2ccccc2)c1
TGI [1]: > 100 µM
TGI [2]: > 100 µM
TGI [3]: > 100 µM
TGI [4]: > 100 µM
TGI [5]: > 100 µM
TGI [6]: > 100 µM
TGI [7]: > 100 µM
TGI [8]: > 100 µM
TGI [9]: > 100 µM
TGI [10]: > 100 µM

C=CCNC(=O)N(CCC)CCCC(NC(C)=O)C(=O)NCc1ccccc1 (stereo not given)
TGI [1]: > 100 µM
TGI [2]: > 100 µM
TGI [3]: > 100 µM
TGI [4]: > 100 µM
TGI [5]: > 100 µM
TGI [6]: > 100 µM
TGI [7]: > 100 µM
TGI [8]: > 100 µM
TGI [9]: > 100 µM
TGI [10]: > 100 µM

Cc1cc2c(cc1Cl)S/C(=C/C(=O)O)C(Nc1cccc3nsnc13)=NS2(=O)=O
GI50 [1]: > 100 µM
TGI [1]: > 100 µM
GI50 [2]: 34.6 µM
TGI [2]: > 67.4 µM
GI50 [3]: 70.1 µM
TGI [3]: > 100 µM
GI50 [4]: > 100 µM
TGI [4]: > 100 µM
GI50 [5]: > 52.3 µM
TGI [5]: > 64.9 µM
GI50 [6]: > 51 µM
TGI [6]: > 81.3 µM
GI50 [7]: 10.7 µM
TGI [7]: 40.6 µM
GI50 [8]: > 51.1 µM
TGI [8]: > 79.2 µM
GI50 [9]: 32.1 µM
TGI [9]: > 68 µM
GI50 [10]: 56 µM
TGI [10]: > 76.6 µM

OCc1ccc(N2CCOCC2)cc1Cl
GI50 [1]: 0.224 µM
TGI [1]: 0.926 µM
GI50 [2]: 2.42 µM
TGI [2]: 10.6 µM
GI50 [3]: > 100 µM
TGI [3]: > 100 µM
GI50 [4]: > 100 µM
TGI [4]: > 100 µM
GI50 [5]: > 100 µM
TGI [5]: > 100 µM
GI50 [6]: > 100 µM
TGI [6]: > 100 µM
GI50 [7]: > 84.4 µM
TGI [7]: > 100 µM
GI50 [8]: > 100 µM
TGI [8]: > 100 µM
GI50 [9]: 0.705 µM
TGI [9]: 2.37 µM
GI50 [10]: > 100 µM
TGI [10]: > 100 µM

O=[N+]([O-])c1ccc(-c2cc3c(Nc4ccc(Cl)c(C(F)(F)F)c4)ncnc3s2)cc1
GI50 [1]: 0.706 µM
TGI [1]: 3.42 µM
GI50 [2]: 1.35 µM
TGI [2]: > 100 µM
GI50 [3]: 0.872 µM
TGI [3]: > 100 µM
GI50 [4]: 1.87 µM
TGI [4]: 9.02 µM
GI50 [5]: 2.42 µM
TGI [5]: 7.6 µM
GI50 [6]: 1.38 µM
TGI [6]: > 100 µM
GI50 [7]: 0.555 µM
TGI [7]: 2.81 µM
GI50 [8]: 1.13 µM
TGI [8]: > 26.7 µM
GI50 [9]: 2.89 µM
TGI [9]: > 100 µM
GI50 [10]: 2.22 µM
TGI [10]: 8.32 µM

O=[N+]([O-])c1cc(Cl)ccc1Sc1ccccc1
TGI [1]: > 100 µM
TGI [2]: > 100 µM
TGI [3]: > 100 µM
TGI [4]: 87 µM
TGI [5]: > 100 µM
TGI [6]: > 100 µM
TGI [7]: > 100 µM
TGI [8]: > 100 µM
TGI [9]: > 100 µM
TGI [10]: > 100 µM

CC1=NN(C(=O)c2ccncc2)C(=O)C1N=Nc1ccc(F)cc1 (stereo not given)
TGI [1]: > 100 µM
TGI [2]: > 100 µM
TGI [3]: > 100 µM
TGI [4]: 66.8 µM
TGI [5]: > 100 µM
TGI [6]: > 100 µM
TGI [7]: > 100 µM
TGI [8]: > 100 µM
TGI [9]: > 100 µM
TGI [10]: > 100 µM
